Source: US20160046618A1, “Cyclopropyl Fused Thiazin-2-Amine Compounds as Beta-Secretase Inhibitors and Methods of Use” (AMGEN INC., priority 2014, published 2016)

Legend:
human recombinant BACE1 = human recombinant BACE1 (Homo sapiens (Human), UniProt P56817); assay: In vitro enzymatic BACE1 FRET assay; type: biochemical; conditions: read-out: IC50 IP (μM) BACE1 enzyme
Outline: (§1)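 Read-out: dequenched fluorescence, excitation 488 nm, emission 590 nm, after proteolysis of a quenched peptide spanning the BACE cleavage site. Substrate at 50 nM, 1 h incubation, termination by Tris addition to neutral pH.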

[1] = test system: Aβ40 in conditioned medium of cells stably expressing Amyloid Precursor Protein (APP); assay: In vitro BACE-1 cell-based assay (Aβ40 sandwich ELISA); conditions: read-out: IC50 IP (μM) BACE1 cell
Outline: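 Read-out: time-resolved fluorescence (Streptavidin-Europium) of Aβ40 captured by pAb40 and detected with biotinylated 6E10 from supernatants of APP-stable cells. Cells were exposed to compound for 24 h, 10-point dose response, top dose 100 μM or 10 μM, 0.1% DMSO. IC50 fitted to percent of control.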

Recombinant Cat D = Recombinant Cat D (Homo sapiens (Human), UniProt P07339); assay: In vitro enzymatic Cathepsin D (Cat D) FRET assay; type: biochemical; conditions: read-out: IC50 IP (μM) CatD
Outline: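 Assay pH is 3.5 (0.05 M citrate, 5 mM CHAPS, 10% DMSO final) with Cat D from CHO cells. A 20 nM quenched peptide substrate is cleaved over one hour; the reaction is ended with Tris and read by fluorescence (ex 500, em 580 nm).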

human recombinant BACE2 = human recombinant BACE2 (Homo sapiens (Human), UniProt Q9Y5Z0); assay: In vitro enzymatic BACE2 FRET assay; type: biochemical; conditions: read-out: IC50 IP (μM) BACE2 enzyme
Outline: as §1

human recombinant BACE2, sequence (Q9Y5Z0 63-518): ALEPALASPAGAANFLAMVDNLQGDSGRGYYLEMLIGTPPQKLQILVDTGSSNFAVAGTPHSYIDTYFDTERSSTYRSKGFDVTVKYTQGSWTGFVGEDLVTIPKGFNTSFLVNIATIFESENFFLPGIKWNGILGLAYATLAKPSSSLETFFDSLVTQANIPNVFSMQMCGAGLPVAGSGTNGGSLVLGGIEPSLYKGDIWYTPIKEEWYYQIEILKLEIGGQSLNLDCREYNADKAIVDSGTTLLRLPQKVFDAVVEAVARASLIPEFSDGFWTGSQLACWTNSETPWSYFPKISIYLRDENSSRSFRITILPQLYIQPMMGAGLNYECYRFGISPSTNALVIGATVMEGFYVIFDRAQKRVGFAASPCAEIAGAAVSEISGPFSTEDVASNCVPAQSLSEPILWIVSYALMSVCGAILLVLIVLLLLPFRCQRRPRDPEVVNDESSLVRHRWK
Recombinant Cat D, sequence (P07339 65-412): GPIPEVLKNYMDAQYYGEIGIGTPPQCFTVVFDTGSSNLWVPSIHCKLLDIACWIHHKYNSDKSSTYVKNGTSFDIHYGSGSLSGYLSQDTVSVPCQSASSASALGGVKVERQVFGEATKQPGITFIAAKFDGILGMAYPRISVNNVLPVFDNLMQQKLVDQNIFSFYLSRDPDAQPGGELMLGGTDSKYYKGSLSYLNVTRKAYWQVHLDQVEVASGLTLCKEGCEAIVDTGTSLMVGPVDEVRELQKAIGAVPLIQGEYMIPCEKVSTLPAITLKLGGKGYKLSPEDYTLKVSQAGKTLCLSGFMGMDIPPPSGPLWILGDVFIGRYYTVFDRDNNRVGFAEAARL
human recombinant BACE1, sequence (P56817 46-501): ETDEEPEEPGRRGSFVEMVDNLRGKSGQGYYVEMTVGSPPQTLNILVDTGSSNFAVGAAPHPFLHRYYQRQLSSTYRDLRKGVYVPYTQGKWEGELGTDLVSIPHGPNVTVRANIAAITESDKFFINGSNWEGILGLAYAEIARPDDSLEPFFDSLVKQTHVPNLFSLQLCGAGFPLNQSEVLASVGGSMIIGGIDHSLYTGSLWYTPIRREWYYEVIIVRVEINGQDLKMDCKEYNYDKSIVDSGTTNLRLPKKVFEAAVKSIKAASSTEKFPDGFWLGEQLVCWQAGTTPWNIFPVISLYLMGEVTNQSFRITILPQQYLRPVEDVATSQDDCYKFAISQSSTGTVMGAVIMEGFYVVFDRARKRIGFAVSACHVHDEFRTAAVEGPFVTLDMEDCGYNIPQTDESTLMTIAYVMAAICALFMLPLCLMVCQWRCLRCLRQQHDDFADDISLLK

Structure (SMILES)	IC50 (human recombinant BACE1)	IC50 [1]	IC50 (Recombinant Cat D)	IC50 (human recombinant BACE2)
C#CCOc1cnc2c(Nc3cc(C(=O)OC)c(F)c([C@@]4(C)N=C(N)S[C@@]5(C(=O)OC)C[C@H]54)c3)nccc2n1 [Example 856, (1S,5S,6S)-methyl 3-amino-5-(2-fluoro-3-(methoxycarbonyl)-5-((2-(prop-2-yn-1-yloxy)pyrido[3,4-b]pyrazin-5-yl)amino)phenyl)-5-methyl-2-thia-4-azabicyclo[4.1.0]hept-3-ene-1-carboxylate]	0.071 µM	0.249 µM	116 µM	0.657 µM
C#CCOc1cnc(C(=O)Nc2cnc(F)c([C@@]3(C)N=C(N)S[C@@]4(COC)C[C@H]43)c2)cn1 [Example 859, N-(5-((1S,5S,6S)-3-amino-1-(methoxymethyl)-5-methyl-2-thia-4-azabicyclo[4.1.0]hept-3-en-5-yl)-6-fluoro-3-pyridinyl)-5-(2-propyn-1-yloxy)-2-pyrazinecarboxamide]	0.000799 µM	0.000762 µM	590 µM	0.0194 µM
Cc1nc(OCc2ncco2)cnc1C(=O)Nc1cc(F)c(F)c([C@@]2(C)N=C(N)S[C@@]3(C(F)F)C[C@@H]23)c1 [Example 860, N-(3-((1S,5S,6S)-3-amino-1-(difluoromethyl)-5-methyl-2-thia-4-azabicyclo[4.1.0]hept-3-en-5-yl)-4,5-difluorophenyl)-3-methyl-5-(1,3-oxazol-2-ylmethoxy)-2-pyrazinecarboxamide]	0.00276 µM	0.00853 µM	1010 µM	0.0286 µM
C#CCOc1cnc(C(=O)Nc2cc(F)c(F)c([C@@]3(C)N=C(N)S[C@@]4(C(F)F)C[C@@H]34)c2)c(C)n1 [Example 861, N-(3-((1S,5S,6S)-3-amino-1-(difluoromethyl)-5-methyl-2-thia-4-azabicyclo[4.1.0]hept-3-en-5-yl)-4,5-difluorophenyl)-3-methyl-5-(2-propyn-1-yloxy)-2-pyrazinecarboxamide]	0.000889 µM	0.00754 µM	146 µM	0.0176 µM

The remaining lines, values ahead:

IC50 (human recombinant BACE1)	IC50 [1]	IC50 (Recombinant Cat D)	IC50 (human recombinant BACE2)	Structure (SMILES)
0.198 µM	0.294 µM	> 400 µM	0.0224 µM	COC(=O)c1cc(NC(=O)c2ccc(Cl)cn2)cc([C@@]2(C)N=C(N)S[C@@]3(C(=O)OC)C[C@H]32)c1F [Example 855, (1S,5S,6S)-methyl 3-amino-5-(5-(5-chloropicolinamido)-2-fluoro-3-(methoxycarbonyl)phenyl)-5-methyl-2-thia-4-azabicyclo[4.1.0]hept-3-ene-1-carboxylate]
0.0678 µM	0.0156 µM	2520 µM	0.346 µM	C#CCOc1cnc2c(Nc3cc(C(=O)OC)c(F)c([C@@]4(C)N=C(N)S[C@@]5(CO)C[C@H]54)c3)nccc2n1 [Example 857, methyl 3-((1S,5S,6S)-3-amino-1-(hydroxymethyl)-5-methyl-2-thia-4-azabicyclo[4.1.0]hept-3-en-5-yl)-2-fluoro-5-((2-(prop-2-yn-1-yloxy)pyrido[3,4-b]pyrazin-5-yl)amino)benzoate]
0.00085 µM	0.000487 µM	> 400 µM	< 0.00203 µM	C[C@]1(c2cc(NC(=O)c3ccc(Cl)cn3)cc(CO)c2F)N=C(N)S[C@@]2(CO)C[C@H]21 [Example 858, N-(3-((1S,5S,6S)-3-amino-1-(hydroxymethyl)-5-methyl-2-thia-4-azabicyclo[4.1.0]hept-3-en-5-yl)-4-fluoro-5-(hydroxymethyl)phenyl)-5-chloropicolinamide]
0.000598 µM	0.0072 µM	129 µM	0.017 µM	C#CCOc1cnc(C(=O)Nc2cc(F)c(F)c([C@@]3(C)N=C(N)S[C@@]4(COC)C[C@H]43)c2)c(C)n1 [Example 862, N-(3-((1S,5S,6S)-3-amino-1-(methoxymethyl)-5-methyl-2-thia-4-azabicyclo[4.1.0]hept-3-en-5-yl)-4,5-difluorophenyl)-3-methyl-5-(2-propyn-1-yloxy)-2-pyrazinecarboxamide]
